PubChem BioAssay (NCI)
“And” between values parts separate entries of the source, which are not always exact repeats. Identical values can stand only once.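 Five compound concentrations were applied to cells in 96-well plates for 48 hours; endpoints were derived by simple linear interpolation of the resulting dose-response curve. GI50 = concentration required for 50% inhibition of growth. The concentration for full growth arrest is given as TGI.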

How the values were obtained:
Test in all cases: DTP human tumour cell line panel, 48 h
MDA-MB-435 = tested on: MDA-MB-435
T-47D breast = tested on: T-47D breast
MDA-N = tested on: MDA-N
KM20L2 colon = tested on: KM20L2 colon
DLD-1 colon = tested on: DLD-1 colon
HOP-18 NSCLC = tested on: HOP-18 NSCLC
XF 498 CNS = tested on: XF 498 CNS
DMS 273 small cell lung = tested on: DMS 273 small cell lung
RXF-631 renal = tested on: RXF-631 renal

Row | Compound | GI50 (MDA-MB-435) | TGI (MDA-MB-435) | GI50 (T-47D breast) | TGI (T-47D breast) | TGI (KM20L2 colon) | TGI (DLD-1 colon) | TGI (HOP-18 NSCLC) | TGI (XF 498 CNS) | TGI (DMS 273 small cell lung) | other results
1 | NC(N)=N/N=C/c1c(-c2ccccn2)nc2sc(Cl)cn12 | 7.56 µM | 14.2 µM | 8.58 µM | 23.3 µM | – | – | – | – | – | –
2 | Cc1ccc([N+](=O)[O-])c2c(NCCCN(C)C)ccnc12 | – | 45.1 µM | – | > 100 µM | 75.2 µM | – | – | – | – | TGI (MDA-N): 98.4 µM
3 | COCC(=O)OC1CCn2c1nc1c2C(=O)C(C)=C(NC(C)=O)C1=O (configuration not stated) | 2.17 µM | 3.69 µM and 3.42 µM | 1.03 µM | 5.51 µM and 2.68 µM | 44.3 µM | 28.8 µM | 57.2 µM | 11.4 µM | 33.6 µM | TGI (MDA-N): 3.39 µM and 3.4 µM
4 | CC1(C)OC(=O)C=C([O-])O1.CC1(C)OC(=O)C=C([O-])O1.O=c1c(O)c(-c2ccc([O-])cc2[O-])oc2cc(O)cc(O)c12.[Ti+4] | – | – | – | – | > 100 µM | > 100 µM | > 100 µM | – | > 100 µM | GI50 (DLD-1 colon): > 100 µM; GI50 (HOP-18 NSCLC): 25 µM; GI50 (DMS 273 small cell lung): 32.2 µM; GI50 (KM20L2 colon): > 100 µM
5 | Oc1c2c(c(O)c3ccccc13)=N[C@@H](c1ccccc1)[C@H](c1ccccc1)N=2 | – | – | – | – | – | > 100 µM | – | > 100 µM | > 100 µM | –
6 | CNC(=O)c1cc(Oc2ccc(NC(=O)Nc3ccc(Cl)c(OC(F)(F)F)c3)c(F)c2)ccn1 | 1.29 µM | 10.9 µM | 0.814 µM | 7.27 µM | – | – | – | – | – | –
7 | C=C1C(=O)O[C@H]2[C@H]1CC/C(COC(=O)c1cc3cc(OC)ccc3[nH]1)=C\CC[C@@]1(C)O[C@@H]21 | 0.621 µM | 2.03 µM | – | – | – | – | – | – | – | –
8 | CNC(=O)c1ccc(-c2cnc3ncc(Cc4ccc5ncccc5c4)n3n2)cc1F | > 100 µM | > 100 µM | > 100 µM | > 100 µM | – | – | – | – | – | –
9 | COc1cc(/C=C/C(=N\NC(=O)c2ccccc2)c2sc(Nc3ccc(Cl)c(Cl)c3)nc2C)ccc1O | – | – | – | – | > 100 µM | > 100 µM | 79.3 µM | 91.3 µM | – | TGI (RXF-631 renal): 72.5 µM
10 | CS(=O)(=O)Nc1ccc(-c2ccc3c(NC(=O)C4CC4)n[nH]c3c2)cc1 | > 25 µM | > 25 µM | > 13.2 µM | > 25 µM | – | – | – | – | – | –
11 | CCCS(=O)(=O)c1nc(NC2CC2)cc(-c2ccc3c(ccn3C3CC(C)(C)NC(C)(C)C3)c2)n1 | 1.47 µM | 2.95 µM | – | – | – | – | – | – | – | –
12 | COc1cc(/C=C\c2ccc(O)cc2)cc(OC)c1OC | – | – | – | – | > 100 µM | > 100 µM | > 100 µM | > 100 µM | 2.9 µM | –
13 | CCCCCC(C(O)C#N)C(O)(C(F)(F)F)C(F)(F)F (configuration not stated) | – | > 10 µM | – | > 10 µM | – | – | – | – | – | TGI (MDA-N): > 10 µM
14 | CCOC(=O)Cc1nc(/C(C#N)=C/c2ccco2)[nH]c(=O)c1C#N | – | – | – | – | > 100 µM | > 100 µM | > 100 µM | – | > 100 µM | –
15 | COC(=O)c1c(O)ccc2[nH]c(C)c(C#N)c12 | 32.9 µM | > 100 µM | 44.4 µM | > 100 µM | – | – | – | – | – | –
16 | C=CC(=O)N1CCN(c2ncnc3c(F)c(-c4c(O)cccc4F)c(Cl)cc23)CC1 | 10.3 µM | 23.9 µM | 10.2 µM | 42.9 µM | – | – | – | – | – | –
17 | CCOC(=O)/C(=C/c1ccco1)P(=O)(OCC)OCC | – | – | – | – | – | > 100 µM | > 100 µM | > 100 µM | – | –
18 | CC(=O)[CH-]C(C)=O.CC(=O)[CH-]C(C)=O.N=CC=N.[Sn+2] | 2.59 µM | 7.43 µM | 1.23 µM | 2.62 µM | 20.9 µM | 3.26 µM | 23.7 µM | 16.5 µM | 8.57 µM | GI50 (DLD-1 colon): 1.71 µM; GI50 (HOP-18 NSCLC): 11.5 µM; GI50 (XF 498 CNS): 6.49 µM; GI50 (DMS 273 small cell lung): 2.91 µM; GI50 (MDA-N): 1.68 µM; TGI (MDA-N): 3.69 µM; GI50 (KM20L2 colon): 8.54 µM
19 | NS(=O)(=O)c1ccc(NC(=O)c2cccc3c(=O)c4ccccc4[nH]c23)cc1 | – | – | – | – | > 100 µM | > 100 µM | > 100 µM | > 100 µM | > 100 µM | –
20 | Cn1c(N)nc2c(nc(OCc3ccccc3)n2C2OC(CO)C(O)C2O)c1=O (configuration not stated) | – | > 100 µM | – | > 100 µM | – | – | – | – | – | TGI (MDA-N): > 100 µM
21 | COc1cc(/C=C2\CC3C4CC=C5CC(N6CCCC6)CC[C@]5(C)C4CC[C@]3(C)C2OC(C)=O)ccc1OCCN1CCCC1 (some centres not stated) | 19.6 µM | 35.5 µM | 16.8 µM | 34.5 µM | – | – | – | – | – | –
22 | CNC(=O)c1cn(C[C@H](F)CCc2ccc(NC(=O)Cc3cc(OC4CC(F)(F)C4)cc(C)n3)nn2)nn1 | > 100 µM | > 100 µM | > 100 µM | > 100 µM | – | – | – | – | – | –
23 | CC1=C(C)C(=O)O[C@@H]([C@](C)(O)[C@]2(O)CC[C@@]3(O)[C@@H]4C[C@H]5O[C@]56CC=CC(=O)[C@]6(C)[C@H]4CC[C@]23C)C1 | 0.0541 µM | 1.08 µM | 0.111 µM | 1.63 µM | – | – | – | – | – | –
24 | CCCNCc1cc(C)cc2c1nc(N1CCNCC1)n2Cc1cc(C)c(F)c(C)c1 | 1.7 µM | 3.21 µM | 1.88 µM | 3.62 µM | – | – | – | – | – | –
25 | CC(=O)O[C@H]1C(=O)[C@@]2(C)[C@H]([C@H](OC(=O)c3ccccc3)[C@]3([O-])C[C@H](OC(=O)[C@H]([O-])[C@@H](NC(=O)c4ccccc4)c4ccccc4)C(C)=C1C3(C)C)[C@]1(OC(C)=O)CO[C@@H]1C[C@@H]2[O-].[Fe+3] | – | – | 0.0802 µM and 0.0744 µM | 65 µM and 95.7 µM | – | – | – | – | – | –
26 | N#Cc1c(N)c(C(=O)O)nn(-c2cccc(C(F)(F)F)c2)c1=O | – | – | – | – | > 100 µM | > 100 µM | > 100 µM | > 100 µM | – | TGI (RXF-631 renal): > 100 µM
27 | Cc1cc(C)nc(NS(=O)(=O)c2ccc(Nc3c4ccccc4nc4c(C(=O)N5CCN(CCOS(C)(=O)=O)CC5)ccc(Cl)c34)cc2)n1 | – | – | – | – | > 100 µM | > 100 µM | – | > 100 µM | > 100 µM | TGI (RXF-631 renal): > 100 µM
28 | CC(C)(C)c1nc2c(o1)C(=Nc1ccc(F)cc1)c1ccccc1C2=O | – | 3.76 µM | – | > 100 µM | 32.5 µM | > 100 µM | 28.8 µM | 3.94 µM | 10.5 µM | TGI (MDA-N): 5.35 µM
29 | O=c1c2ccccc2c2c3c1cccc3c1cccc3c(=O)c4ccccc4c2c31 | – | – | – | – | > 100 µM | > 100 µM | > 100 µM | – | > 100 µM | TGI (RXF-631 renal): > 100 µM
30 | CCn1c(-c2nonc2N)nc2ccc(F)cc21 | > 25 µM | > 25 µM | > 25 µM | > 25 µM | – | – | – | – | – | –
